Laboratory results as given in US8741961B2 (Cutech S.r.l., priority 2007, dated 2014).

Assays:
Type in all cases: cell-based
[1] = tested on: Human anagen hair follicles; assay: Growth (elongation) of isolated human hair follicles in organ culture; details: Table 1
[2] = tested on: Human anagen hair follicles; assay: Number of proliferative (Ki-67) and apoptotic (Apoptag) cells in the dermopapilla of hair follicles; details: for Number of cells in apoptotic state ± standard error / Number of cells in proliferative state ± standard error: after three days of cultivation, % of total cells in dermopapilla
Experimental: After three days of cultivation, samples were taken in order to determine the relative number of cells being in the proliferative or apoptotic state. The cells in apoptotic state were determined using an Apoptag Fluorescein In-situ Apoptosis Detection Kit (Chemicon International cod. S7110), while those in the proliferative state were marked with the antibody Ki-67 (monoclonal mouse anti-human Ki-67, clone MIB1, Dako Cytomation cod. M7240). The total number of cells in the dermopapilla was analysed by marking their nuclei by means of DAPI (4′,6-diamidino-2-phenylindol dihydrochloride). The percentage of cells in the proliferative or apoptotic state compared to the total number of cells was determined again by image analysis.

[3] = tested on: Human anagen hair follicles; assay: Histological analysis of hair follicles (anagen/catagen phase) after 9 days of cultivation; details: for Hair follicles in anagen phase / Hair follicles in catagen phase: after 9 days of cultivation
Text: Subsequently, the hair follicles were subjected to a histological analysis by colouring with haematossilin and eosin in order to verify the morphological state of the dermopapilla.

[4] = tested on: Human anagen hair follicles; assay: Growth (elongation) of isolated human hair follicles in organ culture; details: for Effect on hair growth compared to other MAOI (in words): comparative experiment, Table 4
Experimental: Human anagen hair follicles were isolated from scalp skin and transferred for cultivation in sterile 24-well plates using a modified Williams' Medium E. Cultivation took place for nine days, while the experimental treatment of the follicles started 24 hours after the beginning of cultivation.
Hair follicles taken from a single donor were selected for the experiments after 18 h of cultivation Only follicles showing a good vital stage and a growth of not less than 0.2 mm were considered suitable to be maintained in culture. 4 groups comprising 9 follicles were prepared, plated at the density of three hair follicles/plate. […] The growth of the hair follicles was studied by microphotography and subsequently determined by image analysis. All hair follicles were photographed every two days.

[5] = 0.1 mM, day 1 of cultivation, Table 4 comparative experiment
[6] = 0.1 mM, day 3 of cultivation, Table 4 comparative experiment
[7] = 0.1 mM, day 5 of cultivation, Table 4 comparative experiment
[8] = 0.1 mM, day 9 of cultivation, Table 4 comparative experiment
[9] = 0.01 mM, day 1 of cultivation, Table 4 comparative experiment
[10] = 0.01 mM, day 3 of cultivation, Table 4 comparative experiment
[11] = 0.01 mM, day 5 of cultivation, Table 4 comparative experiment
[12] = 0.01 mM, day 7 of cultivation, Table 4 comparative experiment
[13] = 0.01 mM, day 9 of cultivation, Table 4 comparative experiment
[14] = 0.1 mM, day 7 of cultivation, Table 4 comparative experiment

## Pargyline
[1]; 0.01 mM, day 1 of cultivation
  Growth of hair follicles - elongation ± standard error: 0 mm
[1]; 0.1 mM, day 9 of cultivation
  Growth of hair follicles - elongation ± standard error: 1.60 ± 0.19 mm
[1]; 0.5 mM, day 1 of cultivation
  Growth of hair follicles - elongation ± standard error: 0 mm
[2]; 0.01 mM
  Number of cells in apoptotic state ± standard error: 0.93% ± 0.37
  Number of cells in proliferative state ± standard error: 1.67% ± 0.4
[2]; 0.1 mM
  Number of cells in apoptotic state ± standard error: 0.95% ± 0.08
  Number of cells in proliferative state ± standard error: 2.89% ± 0.99
[2]; versus control
  Effect on number of apoptotic cells (in words): only a marginal effect in increasing the number of apoptotic cells
  Effect on number of cells in proliferative state (in words): significantly increases the number of cells in an active, proliferative state
[3]; 0.01 mM
  Hair follicles in anagen phase: 78%
  Hair follicles in catagen phase: 22%
[3]; 0.1 mM
  Hair follicles in anagen phase: 67%
  Hair follicles in catagen phase: 33%
[3]; 0.5 mM
  Hair follicles in anagen phase: 56%
  Hair follicles in catagen phase: 44%
[3]; 0.01 to 0.5 mM versus control
  Effect on decline in the catagen phase (in words): significantly delayed the decline in the catagen phase
[4]; 0.01 mM, day 3 of cultivation, Table 1
  Growth of hair follicles - elongation ± standard error: 0.51 ± 0.03 mm
[4]; 0.01 mM, day 5 of cultivation, Table 1
  Growth of hair follicles - elongation ± standard error: 0.80 ± 0.07 mm
[4]; 0.01 mM, day 9 of cultivation, Table 1
  Growth of hair follicles - elongation ± standard error: 1.47 ± 0.15 mm
[4]; 0.1 mM, day 1 of cultivation, Table 1
  Growth of hair follicles - elongation ± standard error: 0 mm
[4]; [5]
  Growth of hair follicles - elongation ± standard error: 0 mm
[4]; 0.1 mM, day 3 of cultivation, Table 1
  Growth of hair follicles - elongation ± standard error: 0.55 ± 0.04 mm
[4]; [6]
  Growth of hair follicles - elongation ± standard error: 0.56 ± 0.02 mm
[4]; 0.1 mM, day 5 of cultivation, Table 1
  Growth of hair follicles - elongation ± standard error: 0.91 ± 0.12 mm
[4]; [7]
  Growth of hair follicles - elongation ± standard error: 0.78 ± 0.04 mm
[4]; 0.1 mM, day 7 of cultivation, Table 1
  Growth of hair follicles - elongation ± standard error: 1.19 ± 0.17 mm
[4]; [8]
  Growth of hair follicles - elongation ± standard error: 1.22 ± 0.08 mm
[4]; 0.5 mM, day 3 of cultivation, Table 1
  Growth of hair follicles - elongation ± standard error: 0.55 ± 0.05 mm
[4]; 0.5 mM, day 5 of cultivation, Table 1
  Growth of hair follicles - elongation ± standard error: 0.81 ± 0.11 mm
[4]; 0.5 mM, day 9 of cultivation, Table 1
  Growth of hair follicles - elongation ± standard error: 1.17 ± 0.19 mm
[4]; 0.01 to 0.5 mM versus control, Table 1
  Effect on growth of the hair follicles (in words): significant increase in growth of the hair follicles
[4]
  Effect on hair growth compared to other MAOI (in words): the only active species

## C#CCN(C)[C@@H](C)Cc1ccccc1 [S-Selegiline]
[4]; [9]
  Growth of hair follicles - elongation ± standard error: 0 mm
[4]; [10]
  Growth of hair follicles - elongation ± standard error: 0.33 ± 0.02 mm
[4]; [11]
  Growth of hair follicles - elongation ± standard error: 0.49 ± 0.02 mm
[4]; [12]
  Growth of hair follicles - elongation ± standard error: 0.69 ± 0.03 mm
[4]; [13]
  Growth of hair follicles - elongation ± standard error: 0.84 ± 0.06 mm
[4]; [5]
  Growth of hair follicles - elongation ± standard error: 0 mm
[4]; [6]
  Growth of hair follicles - elongation ± standard error: 0.35 ± 0.01 mm
[4]; [7]
  Growth of hair follicles - elongation ± standard error: 0.55 ± 0.02 mm
[4]; [14]
  Growth of hair follicles - elongation ± standard error: 0.70 ± 0.03 mm
[4]; [8]
  Growth of hair follicles - elongation ± standard error: 0.75 ± 0.06 mm

## C#CCN(C)CCCOc1ccc(Cl)cc1Cl [Chlorgyline]
[4]; [9]
  Growth of hair follicles - elongation ± standard error: 0 mm
[4]; [10]
  Growth of hair follicles - elongation ± standard error: 0.35 ± 0.02 mm
[4]; [11]
  Growth of hair follicles - elongation ± standard error: 0.49 ± 0.02 mm
[4]; [12]
  Growth of hair follicles - elongation ± standard error: 0.61 ± 0.04 mm
[4]; [13]
  Growth of hair follicles - elongation ± standard error: 0.72 ± 0.07 mm
[4]; [5]
  Growth of hair follicles - elongation ± standard error: 0 mm
[4]; [6]
  Growth of hair follicles - elongation ± standard error: 0.33 ± 0.02 mm
[4]; [7]
  Growth of hair follicles - elongation ± standard error: 0.55 ± 0.04 mm
[4]; [14]
  Growth of hair follicles - elongation ± standard error: 0.67 ± 0.05 mm
[4]; [8]
  Growth of hair follicles - elongation ± standard error: 0.79 ± 0.09 mm
[4]
  Effect on hair growth compared to other MAOI (in words): did not exert any effect on hair growth

## C#CCN(C)[C@H](C)Cc1ccccc1 [R-Selegiline]
[4]; [9]
  Growth of hair follicles - elongation ± standard error: 0 mm
[4]; [10]
  Growth of hair follicles - elongation ± standard error: 0.35 ± 0.02 mm
[4]; [11]
  Growth of hair follicles - elongation ± standard error: 0.52 ± 0.03 mm
[4]; [12]
  Growth of hair follicles - elongation ± standard error: 0.62 ± 0.05 mm
[4]; [13]
  Growth of hair follicles - elongation ± standard error: 0.80 ± 0.06 mm
[4]; [5]
  Growth of hair follicles - elongation ± standard error: 0 mm
[4]; [6]
  Growth of hair follicles - elongation ± standard error: 0.34 ± 0.02 mm
[4]; [7]
  Growth of hair follicles - elongation ± standard error: 0.53 ± 0.04 mm
[4]; [14]
  Growth of hair follicles - elongation ± standard error: 0.65 ± 0.06 mm
[4]; [8]
  Growth of hair follicles - elongation ± standard error: 0.82 ± 0.12 mm
